Laboratory results from patent publication US20260001922A1, “PEPTIDES TARGETING SODIUM CHANNELS TO TREAT PAIN” (priority 2022, published 2026).
Positions of bridges follow the written chain, without caps; N, C: chain ends. Residues, ends and D or L forms follow the SMILES beside them.

Experiments:
[1] = target: human Nav1.7 (Homo sapiens, UniProt Q15858); test: cell-based; conditions: whole-cell voltage clamp, HEK 293 cells; read-out: hNav1.7 IC50
Experimental: HEK-293 cells stably expressing human Nav1.1, Nav1.4, Nav1.5, Nav1.6 and Nav1.7 were obtained from Dr. Chris Lossin. Rat Nav1.3 expressing HEK-293 cells were from Dr. Steven Waxman (Yale University, New Haven, CT). These cell lines were cultured in complete DMEM supplemented with 10% FBS, 1% penicillin/streptomycin, and G418. The human Nav1.8 channel (co-expressing with human Navβ1 and Navβ2 subunits) and the Nav1.9 channel (co-expressing with human Trkb, Navβ1, and Navβ2 subunits) were obtained from Icagen (Durham, NC). hNav1.8 cells cultured with G418 (0.4 mg/mL) and puromycin ([…]/mL) and hNav1.9 cells were cultured with G418 (0.4 mg/mL), puromycin ([…]), and zeocin (0.05 mg/mL). Human Nav1.2 were expressed transiently by transfection of the hNav1.2 cDNA (from Dr. Alan L. Goldin, UC Irvine, CA) into HEK-293 cells.
Whole-cell patch-clamp experiments on recombinant channels were conducted manually at room temperature (22-24° C.) using an EPC-10 amplifier (HEKA Electronik, Lambrecht/Pfalz, Germany). Cells were trypsinized and plated onto poly-1-lysine-coated coverslips. All recordings were done in normal Ringer external bath solution containing (in mM) 160 NaCl, 4.5 KCl, 2 CaCl2), 1 MgCl2, 10 HEPES (pH 7.4 and 305 mOsm) as. Patch pipettes were pulled from soda lime glass (micro-hematocrit tubes, Kimble Chase, Rochester, NY) and had resistances of 2-3 MQ when filled with CsF-based internal solution containing (in mM) 10 NaF, 110 CsF, 20 CsCl, 10 HEPES, 2 EGTA, (pH 7.4, 310 mOsm). Data acquisition and analysis were performed with Pulse-PulseFit (HEKA Electronik GmbH, Germany), IgorPro (WaveMetrics, Portland, OR), and Origin 9.0 software (OriginLab Corporation, Northampton, MA). Cells were held at −90 mV and voltage stepped to −120 mV for 200 ms before depolarizing to −10 mV for 50 msec to elicit inward currents. Control test currents were monitored for 5-10 min to ensure that the amplitude and kinetics of the response were stable. Series resistance was compensated to 80-90% and linear leak currents and capacitance artefacts were corrected using a P/4 subtraction method. Pulse interval was 0.1 Hz and peptides were applied to individual cells using a glass transfer pipette directly into the recording bath. For measuring inhibition, currents were allowed to saturate with repeated pulsing before addition of subsequent doses. IC50 values were derived from measurements performed on individual cells that were tested with at least three or more concentrations of each peptide.

[2] = target: T1, human Nav1.2 (Homo sapiens, UniProt Q99250); test: cell-based; conditions: HEK293, read-out: block of hNav1.2 current (% inhibition)
T1 construct: host or cells: HEK-293 (transient)

[3] = target: human Nav1.4 (Homo sapiens, UniProt P35499); test: cell-based; conditions: HEK293, read-out: block of hNav1.4 current (% inhibition)
Chain of human Nav1.4 (P35499 whole entry): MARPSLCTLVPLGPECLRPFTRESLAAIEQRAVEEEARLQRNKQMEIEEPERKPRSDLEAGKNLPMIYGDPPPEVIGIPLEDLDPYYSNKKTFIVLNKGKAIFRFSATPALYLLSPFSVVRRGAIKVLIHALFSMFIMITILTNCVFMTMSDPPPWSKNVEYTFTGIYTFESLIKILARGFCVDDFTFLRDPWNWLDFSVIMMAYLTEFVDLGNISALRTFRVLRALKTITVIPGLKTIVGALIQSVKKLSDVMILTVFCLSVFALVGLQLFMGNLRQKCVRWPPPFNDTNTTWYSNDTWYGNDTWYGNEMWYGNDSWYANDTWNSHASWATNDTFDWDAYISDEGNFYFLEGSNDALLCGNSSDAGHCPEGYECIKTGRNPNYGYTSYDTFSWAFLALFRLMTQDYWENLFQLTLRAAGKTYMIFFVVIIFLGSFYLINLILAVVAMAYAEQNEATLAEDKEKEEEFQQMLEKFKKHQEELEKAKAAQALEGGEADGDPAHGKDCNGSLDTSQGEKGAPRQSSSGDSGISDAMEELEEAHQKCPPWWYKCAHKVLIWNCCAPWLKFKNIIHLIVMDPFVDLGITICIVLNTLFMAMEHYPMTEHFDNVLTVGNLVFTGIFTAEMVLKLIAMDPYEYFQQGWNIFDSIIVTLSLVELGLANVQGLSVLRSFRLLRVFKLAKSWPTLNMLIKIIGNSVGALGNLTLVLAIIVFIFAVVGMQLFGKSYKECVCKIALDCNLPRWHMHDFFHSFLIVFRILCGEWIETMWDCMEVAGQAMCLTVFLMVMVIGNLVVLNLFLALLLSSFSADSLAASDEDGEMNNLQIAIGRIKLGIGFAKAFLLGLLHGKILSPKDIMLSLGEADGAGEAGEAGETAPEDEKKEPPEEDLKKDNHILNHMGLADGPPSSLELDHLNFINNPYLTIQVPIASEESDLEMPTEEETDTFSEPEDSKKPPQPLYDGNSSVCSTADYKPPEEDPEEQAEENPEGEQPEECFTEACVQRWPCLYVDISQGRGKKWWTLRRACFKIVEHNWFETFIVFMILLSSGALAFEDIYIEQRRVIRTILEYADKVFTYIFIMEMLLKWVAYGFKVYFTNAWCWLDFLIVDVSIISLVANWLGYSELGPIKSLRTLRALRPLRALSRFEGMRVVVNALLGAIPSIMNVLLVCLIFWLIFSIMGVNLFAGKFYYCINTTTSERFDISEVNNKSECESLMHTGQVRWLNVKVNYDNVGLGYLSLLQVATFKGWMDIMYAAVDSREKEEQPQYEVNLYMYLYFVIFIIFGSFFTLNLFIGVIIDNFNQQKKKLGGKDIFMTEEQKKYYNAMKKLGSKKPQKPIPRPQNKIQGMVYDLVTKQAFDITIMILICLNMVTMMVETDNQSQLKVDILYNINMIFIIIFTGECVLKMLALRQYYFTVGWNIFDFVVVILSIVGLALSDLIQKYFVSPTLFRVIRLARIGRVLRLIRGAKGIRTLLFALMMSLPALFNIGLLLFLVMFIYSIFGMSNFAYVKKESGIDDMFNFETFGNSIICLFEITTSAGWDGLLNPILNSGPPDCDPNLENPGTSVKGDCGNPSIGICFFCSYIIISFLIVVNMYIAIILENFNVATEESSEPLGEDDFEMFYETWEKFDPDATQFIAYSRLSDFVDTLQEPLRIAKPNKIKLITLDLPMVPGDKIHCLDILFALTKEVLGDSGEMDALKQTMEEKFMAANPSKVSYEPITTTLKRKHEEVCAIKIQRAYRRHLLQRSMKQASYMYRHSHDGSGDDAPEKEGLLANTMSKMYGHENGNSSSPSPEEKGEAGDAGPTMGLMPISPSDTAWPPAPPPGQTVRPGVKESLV

[4] = target: human Nav1.5 (Homo sapiens, UniProt Q14524); test: in vitro; format: cell-based; conditions: pH 7.4, read-out: block of hNav1.5 current (% inhibition)
Chain of human Nav1.5 (Q14524 whole entry): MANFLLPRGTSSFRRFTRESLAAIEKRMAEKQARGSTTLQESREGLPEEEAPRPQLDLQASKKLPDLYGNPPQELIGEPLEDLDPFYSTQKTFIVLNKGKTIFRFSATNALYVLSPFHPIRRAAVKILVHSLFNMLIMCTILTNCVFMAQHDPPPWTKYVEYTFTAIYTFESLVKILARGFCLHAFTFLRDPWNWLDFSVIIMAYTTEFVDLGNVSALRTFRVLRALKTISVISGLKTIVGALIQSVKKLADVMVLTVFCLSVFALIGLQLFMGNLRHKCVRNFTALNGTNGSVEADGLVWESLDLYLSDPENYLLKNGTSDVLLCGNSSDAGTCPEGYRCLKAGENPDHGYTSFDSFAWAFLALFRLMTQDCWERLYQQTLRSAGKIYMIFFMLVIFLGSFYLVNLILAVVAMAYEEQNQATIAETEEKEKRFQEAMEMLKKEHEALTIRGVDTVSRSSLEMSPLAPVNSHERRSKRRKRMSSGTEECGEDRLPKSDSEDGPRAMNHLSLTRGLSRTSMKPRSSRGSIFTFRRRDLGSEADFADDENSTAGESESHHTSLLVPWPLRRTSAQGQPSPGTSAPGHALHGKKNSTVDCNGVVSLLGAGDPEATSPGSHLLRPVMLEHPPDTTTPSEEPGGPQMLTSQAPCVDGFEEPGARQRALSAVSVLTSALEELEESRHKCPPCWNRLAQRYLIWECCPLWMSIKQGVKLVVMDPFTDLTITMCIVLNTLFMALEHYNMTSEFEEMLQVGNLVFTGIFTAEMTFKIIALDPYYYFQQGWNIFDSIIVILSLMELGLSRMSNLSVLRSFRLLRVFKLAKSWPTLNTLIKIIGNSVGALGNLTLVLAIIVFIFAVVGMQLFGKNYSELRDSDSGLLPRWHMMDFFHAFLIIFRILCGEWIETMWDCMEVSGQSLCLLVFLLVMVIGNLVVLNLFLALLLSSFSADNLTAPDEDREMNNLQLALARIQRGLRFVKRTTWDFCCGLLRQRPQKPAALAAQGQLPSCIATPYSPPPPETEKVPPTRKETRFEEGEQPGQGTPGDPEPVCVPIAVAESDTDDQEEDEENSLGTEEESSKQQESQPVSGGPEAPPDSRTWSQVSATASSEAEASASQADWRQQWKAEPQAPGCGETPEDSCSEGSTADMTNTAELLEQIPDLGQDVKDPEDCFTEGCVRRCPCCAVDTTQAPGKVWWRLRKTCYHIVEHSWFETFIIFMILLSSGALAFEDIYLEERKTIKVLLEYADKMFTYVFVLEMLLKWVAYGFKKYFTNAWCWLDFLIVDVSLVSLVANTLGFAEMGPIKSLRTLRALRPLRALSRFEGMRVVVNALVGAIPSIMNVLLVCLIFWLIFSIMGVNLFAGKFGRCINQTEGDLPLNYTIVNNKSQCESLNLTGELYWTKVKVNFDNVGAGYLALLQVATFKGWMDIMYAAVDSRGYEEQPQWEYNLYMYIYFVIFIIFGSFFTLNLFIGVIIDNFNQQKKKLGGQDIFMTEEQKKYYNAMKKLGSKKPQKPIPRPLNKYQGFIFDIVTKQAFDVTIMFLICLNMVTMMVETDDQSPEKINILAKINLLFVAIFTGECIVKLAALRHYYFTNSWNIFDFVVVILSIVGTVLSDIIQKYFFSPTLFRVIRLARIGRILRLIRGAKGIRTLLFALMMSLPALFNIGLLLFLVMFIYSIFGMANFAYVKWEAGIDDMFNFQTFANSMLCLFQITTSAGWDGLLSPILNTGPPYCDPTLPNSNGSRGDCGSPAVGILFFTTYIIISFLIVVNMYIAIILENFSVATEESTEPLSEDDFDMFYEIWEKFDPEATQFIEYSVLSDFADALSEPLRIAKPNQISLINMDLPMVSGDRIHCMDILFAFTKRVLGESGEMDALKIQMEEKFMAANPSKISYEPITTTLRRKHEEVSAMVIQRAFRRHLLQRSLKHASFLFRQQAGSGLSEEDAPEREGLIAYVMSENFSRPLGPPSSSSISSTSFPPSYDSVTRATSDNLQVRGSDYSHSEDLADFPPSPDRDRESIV

[5] = test system: thermal nociception in naïve rats; conditions: 1.6 μg i.t.
[6] = target: hERG channel (Homo sapiens, UniProt Q12809); test: in vitro
Chain of hERG channel (Q12809 whole entry): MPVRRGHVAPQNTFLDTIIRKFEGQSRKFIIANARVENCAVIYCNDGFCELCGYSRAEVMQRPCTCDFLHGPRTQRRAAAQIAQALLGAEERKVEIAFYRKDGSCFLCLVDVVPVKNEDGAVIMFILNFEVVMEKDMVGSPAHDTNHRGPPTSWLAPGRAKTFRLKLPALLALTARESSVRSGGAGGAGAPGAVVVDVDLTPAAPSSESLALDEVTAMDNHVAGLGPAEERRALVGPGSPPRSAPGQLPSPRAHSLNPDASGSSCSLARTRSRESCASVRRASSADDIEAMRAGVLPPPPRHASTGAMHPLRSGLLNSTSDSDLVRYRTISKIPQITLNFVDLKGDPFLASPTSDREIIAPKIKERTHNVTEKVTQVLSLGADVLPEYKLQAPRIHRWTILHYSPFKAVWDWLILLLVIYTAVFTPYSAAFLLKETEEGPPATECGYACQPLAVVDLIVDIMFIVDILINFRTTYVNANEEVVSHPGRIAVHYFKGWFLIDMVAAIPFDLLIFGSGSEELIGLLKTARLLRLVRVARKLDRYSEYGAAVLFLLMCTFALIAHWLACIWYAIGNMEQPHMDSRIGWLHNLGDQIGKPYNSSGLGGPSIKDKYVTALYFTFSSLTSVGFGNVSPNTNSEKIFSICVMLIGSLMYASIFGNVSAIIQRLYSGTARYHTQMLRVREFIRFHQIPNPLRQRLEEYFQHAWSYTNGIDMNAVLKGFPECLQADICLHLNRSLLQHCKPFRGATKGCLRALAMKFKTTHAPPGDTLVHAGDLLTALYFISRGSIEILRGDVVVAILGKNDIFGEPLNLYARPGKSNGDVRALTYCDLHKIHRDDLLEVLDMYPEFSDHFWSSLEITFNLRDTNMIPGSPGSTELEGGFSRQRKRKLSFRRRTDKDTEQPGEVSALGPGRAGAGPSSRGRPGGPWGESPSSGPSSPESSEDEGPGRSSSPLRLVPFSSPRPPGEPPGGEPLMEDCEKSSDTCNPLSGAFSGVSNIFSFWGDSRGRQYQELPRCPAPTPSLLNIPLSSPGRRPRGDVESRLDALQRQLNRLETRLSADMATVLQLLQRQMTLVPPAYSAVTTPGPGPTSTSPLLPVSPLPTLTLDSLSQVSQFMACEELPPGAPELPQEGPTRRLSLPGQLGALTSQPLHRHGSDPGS

## CSCC[C@@H]1NC(=O)[C@H](Cc2c[nH]c3ccccc23)NC(=O)[C@H](CCCCN)NC(=O)[C@H](CCC(N)=O)NC(=O)[C@@H](NC(=O)[C@@H](N)Cc2ccc(O)cc2)CSSC[C@@H]2NC(=O)[C@@H]3CSSC[C@@H](C(=O)N[C@@H](CCCNC(=N)N)C(=O)N[C@@H](CCCCN)C(=O)N[C@@H](CCC(=O)O)C(=O)N[C@@H](CC(C)C)C(=O)N[C@@H](CC(C)C)C(N)=O)NC(=O)[C@H](Cc4c[nH]c5ccccc45)NC(=O)[C@H](CC(C)C)NC(=O)[C@H](CCCNC(=N)N)NC(=O)[C@H](CSSC[C@H](NC(=O)[C@H]([C@@H](C)O)NC(=O)[C@H](CCC(N)=O)NC1=O)C(=O)N[C@@H](CC(=O)O)C(=O)N[C@@H](CCCCN)C(=O)N[C@@H](CC(=O)O)C(=O)N[C@@H](CCCNC(=N)N)C(=O)N[C@@H](CCCCN)C(=O)N3)NC(=O)[C@H](CCCNC(=N)N)NC(=O)[C@H](CC(C)C)NC(=O)CNC(=O)[C@H](CCC(=O)O)NC2=O [PTx2-3066] (H-YCQKWMQTCDKDRKCCEGLRCRLWCRKELL-NH2; disulfide 2-16, 9-21, 15-25)
[1]
  IC50: 30.8 nM
[2]
  inhibition at 10 µM: ~41%
[3]
  inhibition at 10 µM: ~34%
[4]
  inhibition at 10 µM: ~1%

## CSCC[C@@H]1NC(=O)[C@H](Cc2c[nH]c3ccccc23)NC(=O)[C@H](CCCCN)NC(=O)[C@H](CCC(N)=O)NC(=O)[C@@H](NC(=O)[C@@H](N)CCC(N)=O)CSSC[C@@H]2NC(=O)[C@@H]3CSSC[C@@H](C(=O)N[C@@H](CCCNC(=N)N)C(=O)N[C@@H](CCCCN)C(=O)N[C@@H](CCC(=O)O)C(=O)N[C@@H](CC(C)C)C(=O)N[C@@H](CC(C)C)C(N)=O)NC(=O)[C@H](Cc4c[nH]c5ccccc45)NC(=O)[C@H](CC(C)C)NC(=O)[C@H](CCCNC(=N)N)NC(=O)[C@H](CSSC[C@H](NC(=O)[C@H]([C@@H](C)O)NC(=O)[C@H](CCC(N)=O)NC1=O)C(=O)N[C@@H](CC(=O)O)C(=O)N[C@@H](CCCCN)C(=O)N[C@@H](CC(=O)O)C(=O)N[C@@H](CCCNC(=N)N)C(=O)N[C@@H](CCCCN)C(=O)N3)NC(=O)[C@H](CCCNC(=N)N)NC(=O)[C@H](Cc1ccccc1)NC(=O)CNC(=O)[C@H](CCC(=O)O)NC2=O [PTx2-3127] (H-QCQKWMQTCDKDRKCCEGFRCRLWCRKELL-NH2; disulfide 2-16, 9-21, 15-25)
[5]
  motor activity: did not lame or significantly alter motor activity

## CSCC[C@@H]1NC(=O)[C@H](Cc2c[nH]c3ccccc23)NC(=O)[C@H](CCCCN)NC(=O)[C@H](CCC(N)=O)NC(=O)[C@@H](NC(=O)[C@@H](N)Cc2c[nH]cn2)CSSC[C@@H]2NC(=O)[C@@H]3CSSC[C@@H](C(=O)N[C@@H](CCCNC(=N)N)C(=O)N[C@@H](CCCCN)C(=O)N[C@@H](CCC(=O)O)C(=O)N[C@@H](CC(C)C)C(=O)N[C@@H](CC(C)C)C(N)=O)NC(=O)[C@H](Cc4c[nH]c5ccccc45)NC(=O)[C@H](CC(C)C)NC(=O)[C@H](CCCNC(=N)N)NC(=O)[C@H](CSSC[C@H](NC(=O)[C@H]([C@@H](C)O)NC(=O)[C@H](CCC(N)=O)NC1=O)C(=O)N[C@@H](CC(=O)O)C(=O)N[C@@H](CCCCN)C(=O)N[C@@H](CC(=O)O)C(=O)N[C@@H](CCCNC(=N)N)C(=O)N[C@@H](CCCCN)C(=O)N3)NC(=O)[C@H](CCCNC(=N)N)NC(=O)[C@H](Cc1ccccc1)NC(=O)CNC(=O)[C@H](CCC(=O)O)NC2=O [PTx2-3258]
[6]
  IC50: 1000 nM
